Test results published in patent publication US8067427B2 (AstraZeneca AB, priority 2004, dated 2011).
Converted amounts (≈) assume the structure as drawn.

Key:
[1] = Strain rate sensitivity (SRS); format: physicochemical; conditions: percent increase in yield pressure from slow to fast punch velocity
Source text: (§1) The mechanical properties of materials such as powders may be described in terms of the following characteristics: • (a) Hardness, or resistance to deformation, which can be measured by an indentation hardness test; • (b) Yield pressure (denoted Py and also known as yield stress), that is the point at which plastic deformation occurs, which can be measured by compaction studies; • (c) Strain Rate Sensitivity (SRS), that is the percent increase in yield pressure from slow to fast punch velocity, which can be measured by compaction studies; and • (d) Modulus of Elasticity, that is the ratio of stress to elongation (strain), which can be measured by numerous methods that are well known to a person skilled in the art of formulation.
Materials can, in general, be classified by the way in which they deform under compressive force, either by brittle fracture or by plastic deformation. The degree of deformation for a brittle material is independent of the rate and duration of the compression event (that is the compression applied), giving a strain rate sensitivity value for such materials of 0% (zero %). […]
The strain rate sensitivity of a material can be calculated using the mean yield pressures (Py) calculated for a material at fast (300 mm s^−1) and slow (0.033 mm s^−1) punch velocities. […]

[2] = Yield pressure test (compaction simulator, Heckel plot); format: physicochemical
Source text: as §1
The yield pressure of a material can be determined by compressing it in a compaction simulator using a simple uniaxial saw tooth displacement/time profile and measuring the corresponding forces. The compaction simulator is fitted with 10 mm flat-faced punches and the material is compressed to zero porosity at a specific punch velocity. The force/displacement data generated are manipulated to produce a Heckel plot and the yield pressure is equivalent to the […] of the Heckel plot. This test can be performed at different punch velocities to determine the effect of scale-up on the deformation characteristics of the material. […]

[3] = system: VEGF RTK; conditions: cited from earlier work
[4] = system: tumour models; conditions: range of models, once-daily oral administration; cited from earlier work
[5] = physchem; conditions: water, 25 °C
[6] = Solubility in water

SMILES	strain rate sensitivity [1] [%]	yield pressure [2] [MPa]	inhibition of VEGF RTK [3]	anti-tumour activity [4]	solubility [5] [µg/mL]	solubility class per British Pharmacopoeia 2001-2002 classification system [6]
O.OC[C@H]1O[C@@H](O[C@H]2[C@H](O)[C@@H](O)C(O)O[C@@H]2CO)[C@H](O)[C@@H](O)[C@H]1O (stereo partly shown) [Lactose monohydrate]	19.4					
COc1cc2c(Nc3ccc(Br)cc3F)ncnc2cc1OCC1CCN(C)CC1 [ZD6474, 4-(4-bromo-2-fluoroanilino)-6-methoxy-7-(1-methylpiperidin-4-ylmethoxy)quinazoline]	197	22	potent inhibitor	broad-spectrum anti-tumour activity	33 (≈ 69.4 µM)	practically insoluble
